Results: publication PMC9386255, “Specialized acyl carrier protein used by serine palmitoyltransferase to synthesize sphingolipids in Rhodobacteria” (Frontiers in Microbiology, 2022)

Key:
Type in all cases: biochemical
[1] = target: T1, FadDSm, acyl-CoA synthetase FadD from S. meliloti 1021 (Sinorhizobium meliloti, UniProt Q7APF7); experiment: [3H]palmitoyl-CoA formation, heptane extraction, scintillation counting; settings: 10 mM ATP, 10 mM MgSO4, 1 mM Triton X-100, pH 8.0, 37 C, 40 uM CoA
T1 construct: full length, His6-tagged (pET28a, pECH3), E. coli BL21(DE3) pLysS host, IMAC-purified, tag kept

[2] = target: T2, SPTCc (CC_1162), serine palmitoyltransferase (Caulobacter vibrioides, UniProt Q9A932); experiment: L-[…]serine incorporation into 3-oxo-sphinganine, TLC autoradiography, empty-vector control; settings: 10 uM palmitoyl-CoA, 432 uM L-[14C]serine, 10 uM pyridoxal phosphate, pH 7.5, 30 C; minor product
T2 construct: full length, expressed from pET9a (pJPG08) in E. coli BL21(DE3) pLysS, cell-free extract
T2 sequence (Q9A932 1-404): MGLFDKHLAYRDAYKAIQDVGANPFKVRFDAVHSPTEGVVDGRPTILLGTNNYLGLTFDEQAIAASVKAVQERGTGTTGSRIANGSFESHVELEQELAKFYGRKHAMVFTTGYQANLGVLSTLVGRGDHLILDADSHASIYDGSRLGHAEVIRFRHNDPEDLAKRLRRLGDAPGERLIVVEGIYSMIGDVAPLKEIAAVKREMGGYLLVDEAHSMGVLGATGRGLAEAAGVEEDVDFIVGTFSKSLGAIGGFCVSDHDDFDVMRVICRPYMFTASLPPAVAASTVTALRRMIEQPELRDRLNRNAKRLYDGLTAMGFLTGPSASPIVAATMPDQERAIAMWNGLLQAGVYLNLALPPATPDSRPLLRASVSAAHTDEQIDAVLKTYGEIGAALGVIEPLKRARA

[3] = target: T3, SPTSw (Swit_3900), serine palmitoyltransferase (Rhizorhabdus wittichii, UniProt A0A9J9HEF8); experiment: as above; settings: 10 uM palmitoyl-CoA, 432 uM L-[14C]serine, 10 uM pyridoxal phosphate, pH 7.5, 30 C; minor product
T3 construct: full length, expressed from pET9a (pJPG02) in E. coli BL21(DE3) pLysS, cell-free extract
T3 sequence (A0A9J9HEF8 1-400): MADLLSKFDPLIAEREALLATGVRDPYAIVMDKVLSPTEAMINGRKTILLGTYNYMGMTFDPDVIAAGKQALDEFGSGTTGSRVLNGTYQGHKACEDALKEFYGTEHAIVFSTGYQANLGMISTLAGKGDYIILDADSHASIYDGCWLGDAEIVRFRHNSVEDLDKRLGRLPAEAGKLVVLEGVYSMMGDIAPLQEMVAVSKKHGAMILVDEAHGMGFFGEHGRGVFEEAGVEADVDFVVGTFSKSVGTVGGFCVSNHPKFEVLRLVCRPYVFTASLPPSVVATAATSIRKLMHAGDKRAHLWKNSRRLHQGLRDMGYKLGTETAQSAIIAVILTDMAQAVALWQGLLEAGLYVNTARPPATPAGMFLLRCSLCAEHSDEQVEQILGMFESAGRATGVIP

[4] = target: T4, SPTEc (ECD_02854), serine palmitoyltransferase (Escherichia coli, UniProt B1LEF2); experiment: as above; settings: 10 uM palmitoyl-CoA, 432 uM L-[14C]serine, 10 uM pyridoxal phosphate, pH 7.5, 30 C; minor product
T4 construct: gene EcSMS35_3263; full length, expressed from pET9a (pJPG01) in E. coli BL21(DE3) pLysS, cell-free extract
T4 sequence (B1LEF2 1-390): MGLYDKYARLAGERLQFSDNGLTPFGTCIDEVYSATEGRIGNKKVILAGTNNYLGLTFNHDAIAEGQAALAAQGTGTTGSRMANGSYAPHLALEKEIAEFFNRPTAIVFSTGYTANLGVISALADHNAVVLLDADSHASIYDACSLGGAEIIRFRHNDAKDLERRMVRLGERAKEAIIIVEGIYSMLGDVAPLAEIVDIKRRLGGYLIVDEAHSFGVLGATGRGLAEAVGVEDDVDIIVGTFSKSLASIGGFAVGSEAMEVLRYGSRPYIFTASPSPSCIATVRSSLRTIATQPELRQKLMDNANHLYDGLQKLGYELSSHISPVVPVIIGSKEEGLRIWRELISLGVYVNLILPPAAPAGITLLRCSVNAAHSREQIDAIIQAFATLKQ

T1 sequence (Q7APF7 entry or part of it): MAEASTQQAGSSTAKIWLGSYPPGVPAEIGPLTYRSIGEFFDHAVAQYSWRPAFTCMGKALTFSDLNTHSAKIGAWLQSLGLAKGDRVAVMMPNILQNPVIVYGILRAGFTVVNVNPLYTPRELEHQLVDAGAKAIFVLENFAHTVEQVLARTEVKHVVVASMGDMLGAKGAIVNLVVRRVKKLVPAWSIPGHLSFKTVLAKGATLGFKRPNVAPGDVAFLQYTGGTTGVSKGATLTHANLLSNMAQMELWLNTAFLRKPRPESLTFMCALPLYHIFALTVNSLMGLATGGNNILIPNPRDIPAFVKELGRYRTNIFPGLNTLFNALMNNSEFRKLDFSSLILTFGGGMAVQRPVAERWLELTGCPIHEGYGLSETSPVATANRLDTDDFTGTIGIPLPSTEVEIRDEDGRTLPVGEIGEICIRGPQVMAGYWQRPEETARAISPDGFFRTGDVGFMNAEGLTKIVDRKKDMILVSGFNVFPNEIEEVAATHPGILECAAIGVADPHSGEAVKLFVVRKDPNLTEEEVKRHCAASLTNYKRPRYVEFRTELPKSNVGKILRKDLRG

CC(C)(COP(=O)(O)OP(=O)(O)OC[C@H]1O[C@@H](n2cnc3c(N)ncnc32)[C@H](O)[C@@H]1OP(=O)(O)O)[C@@H](O)C(=O)NCCC(=O)NCCS [CoA]
[3H]palmitoyl-CoA formation, heptane extraction, scintillation counting ([1]; 200 uM [3H]palmitate): acyl-CoA synthetase FadD is able to form acyl-CoA

CCCCCCCCCCCCCCCC(=O)O [palmitate]
[3H]palmitoyl-CoA formation, heptane extraction, scintillation counting ([1]; 200 uM palmitate, labelled compound): Using FadDSm in the acylation assay resulted in an increase in the amount of acyl-CoA

CCCCCCCCCCCCCCCC(=O)SCCNC(=O)CCNC(=O)[C@H](O)C(C)(C)COP(=O)(O)OP(=O)(O)OC[C@H]1O[C@@H](n2cnc3c(N)ncnc32)[C@H](O)[C@@H]1OP(=O)(O)O [palmitoyl-CoA]
L-[14C]serine incorporation into 3-oxo-sphinganine, TLC autoradiography, empty-v [2]: using the SPTs from C. crescentus, E. coli BL21(DE3) or S. wittichii, and palmitoyl-CoA as thioester
L-[14C]serine incorporation into 3-oxo-sphinganine, TLC autoradiography, empty-v [3]: using the SPTs from C. crescentus, E. coli BL21(DE3) or S. wittichii, and palmitoyl-CoA as thioester
L-[14C]serine incorporation into 3-oxo-sphinganine, TLC autoradiography, empty-v [4]: using the SPTs from C. crescentus, E. coli BL21(DE3) or S. wittichii, and palmitoyl-CoA as thioester
